Molecules are shown by their SMILES.

In the first experiment the test system is Acinetobacter baumannii ATCC 17978. Description: Antimicrobial susceptibility testing: 90% growth inhibitory concentration (IC90) determination. The conditions noted are these: 90% growth inhibitory concentration; Acinetobacter baumannii ATCC17978; Iso-Sensitest broth, OD 600 nm over 16h; read-out: ATCC17978 IC90. In kind it is cell-based. A digest of the protocol:
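Growth of the Acinetobacter baumannii strain was followed by optical density at 600 nm every 20 minutes for 16h at 35±2° C. Inoculum was ~5×10^(5) CFU/ml in Iso-Sensitest medium, with twofold compound dilutions (e.g. 50 to 0.097 μM final). The 90% inhibitory concentration was derived in log-phase growth.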
For `COc1ccc(-c2cnc3c(Nc4ccc(C(=O)NCCC5CCN(C)CC5)c(C)c4)nccn23)cc1` [Example 195, 4-[[3-(4-methoxyphenyl)imidazo[1,2-a]pyrazin-8-yl]amino]-2-methyl-N-[2-(1-methylpiperidin-4-yl)ethyl]benzamide;hydrochlo-ride], the IC90 was found to be 360 nM.

The same experiment, now with this note: Acinetobacter baumannii, ATCC17978, 16 h, 90% growth inhibitory concentration; Acinetobacter baumannii ATCC17978; Iso-Sensitest broth, OD 600 nm over 16h; read-out: ATCC17978 IC90.
For `COc1ccc(-c2cnc3c(Nc4ccc(C(=O)N(C)CCC5CCNCC5)c(C)c4)nccn23)cc1` [Example 182, 4-[[3-(4-methoxyphenyl)imidazo[1,2-a]pyrazin-8-yl]amino]-N,2-dimethyl-N-(2-piperidin-4-ylethyl)benzamide; hydrochlo-ride], the IC90 was determined as 180 nM.

`CCc1cc(Nc2nccn3c(-c4ccc(OC(F)F)cc4)cnc23)ccc1C(=O)NC` [Example 183, 4-[[3-[4-(difluoromethoxy)phenyl]im-idazo[1,2-a]pyrazin-8-yl]amino]-2-ethyl-N-methylbenzamide]: the IC90 came out at 190 nM.

Regarding `COc1ccc(-c2cnc3c(Nc4ccc(C(=O)NCCCCCN)c(C)c4)nccn23)cc1` [Example 184, N-(5-aminopentyl)-4-[[3-(4-methoxyphenyl)imidazo[1,2-a]pyrazin-8-yl]amino]-2-methylbenzamide; hydrochlo-ride], the IC90 was 220 nM. `CNC(=O)c1ccc(Nc2nccn3c(-c4ccc(Cl)cc4)cnc23)cc1C` [Example 185, 4-[[3-(4-chlorophenyl)imidazo[1,2-a]pyrazin-8-yl]amino]-N,2-dimethylbenzamide]: the IC90 came to 230 nM. Turning to `Cc1cc(Nc2nccn3c(-c4ccc(Cl)cc4)cnc23)ccc1C(=O)NCCC1CCN(C)CC1` [Example 186, 4-[[3-(4-chlorophenyl)imidazo[1,2-a]pyrazin-8-yl]amino]-2-methyl-N-[2-(1-methylpiperidin-4-yl)ethyl]benzamide], the IC90 amounted to 260 nM. Regarding `COc1ccc(-c2cnc3c(Nc4ccc(C(=O)NCCCCN5CCOCC5)c(C)c4)nccn23)cc1F` [Example 187, 4-[[3-(3-fluoro-4-methoxyphenyl)imidazo[1,2-a]pyrazin-8-yl]amino]-2-methyl-N-(4-morpholin-4-ylbutyl)benzamide], the IC90 was found to be 270 nM. Consider `COc1ccc(-c2cnc3c(Nc4ccc(C(=O)NCCN5CCNCC5)c(Cl)c4)nccn23)cc1F` [Example 188, 2-chloro-4-[[3-(3-fluoro-4-methoxyphenyl)imidazo[1,2-a]pyrazin-8-yl]amino]-N-(2-piperazin-1-ylethyl)benzamide;hydrochlo-ride], for which the IC90 was found to be 270 nM. `Cc1cc(Nc2nccn3c(-c4ccc(Cl)cc4)cnc23)ccc1C(=O)NCCC1CCNCC1` [Example 189, 4-[[3-(4-chlorophenyl)imidazo[1,2-a]pyrazin-8-yl]amino]-2-methyl-N-(2-piperidin-4-ylethyl)benzamide;hydrochlo-ride]: the IC90 was 280 nM. On to `CNC(=O)c1ccc(Nc2nccn3c(-c4ccc(OC(F)F)cc4)cnc23)cc1CCO` [Example 190, 4-[[3-[4-(difluoromethoxy)phenyl]im-idazo[1,2-a]pyrazin-8-yl]amino]-2-(2-hydroxyethyl)-N-methylbenzamide], for which the IC90 was 330 nM. For the compound `COc1ccc(-c2cnc3c(Nc4ccc(C(=O)NCCC5CCNCC5)c(C)c4)nccn23)cc1` [Example 191, 4-[[3-(4-methoxyphenyl)imidazo[1,2-a]pyrazin-8-yl]amino]-2-methyl-N-(2-piperidin-4-ylethyl)benzamide;hydrochlo-ride], the IC90 turned out to be 330 nM.

With `COc1ccc(-c2cnc3c(Nc4ccc(C(=O)N(C)CCCC5OCC(N)CO5)c(C)c4)nccn23)cc1F` (stereo not shown) [Example 192, N-[3-(5-amino-1,3-dioxan-2-yl)propyl]-4-[[3-(3-fluoro-4-methoxyphenyl)imidazo[1,2-a]pyrazin-8-yl]amino]-N,2-dimethylbenzamide], the IC90 was 340 nM. Same read-out and setting: next, `Cc1cc(Nc2nccn3c(-c4ccc(Cl)c(F)c4F)cnc23)ccc1C(=O)NCCC1CCNCC1` [Example 193, 4-[[3-(4-chloro-2,3-difluorophenyl)imidazo[1,2-a]pyrazin-8-yl]amino]-2-methyl-N-(2-piperidin-4-ylethyl)benzamide;hydrochlo-ride]: 350 nM; `COc1ccc(-c2cnc3c(Nc4ccc(C(=O)NCCCCN)c(C)c4)nccn23)cc1` [Example 194, N-(4-aminobutyl)-4-[[3-(4-methoxyphenyl)imidazo[1,2-a]pyrazin-8-yl]amino]-2-methylbenzamide;hydrochlo-ride]: 360 nM; `Cc1cc(Nc2nccn3c(-c4ccc(OC(F)F)cc4)cnc23)ccc1C(=O)NCCC1CCNCC1` [Example 196, 4-[[3-[4-(difluoromethoxy)phenyl]im-idazo[1,2-a]pyrazin-8-yl]amino]-2-methyl-N-(2-piperidin-4-ylethyl)benzamide;hydrochlo-ride]: 380 nM. Consider `Cc1cc(Nc2nccn3c(-c4ccc(OC(F)F)cc4)cnc23)ccc1C(=O)NCCCCN1CCOCC1` [Example 197, 4-[[3-[4-(difluoromethoxy)phenyl]im-idazo[1,2-a]pyrazin-8-yl]amino]-2-methyl-N-(4-morpholin-4-ylbutyl)benzamide], for which the IC90 was 400 nM. In the case of `Cc1cc(Nc2nccn3c(-c4ccc(OC(F)F)cc4)cnc23)ccc1C(=O)NCC1CCN(C)CC1` [Example 198, 4-[[3-[4-(difluoromethoxy)phenyl]im-idazo[1,2-a]pyrazin-8-yl]amino]-2-methyl-N-[(1-methylpiperidin-4-yl)methyl]benzamide], the IC90 is 720 nM. Regarding `COc1ccc(-c2cnc3c(Nc4ccc(C(=O)NCCN5CCNCC5)c(C)c4)nccn23)cc1F` [Example 199, 4-[[3-(3-fluoro-4-methoxyphenyl)imidazo[1,2-a]pyrazin-8-yl]amino]-2-methyl-N-(2-piperazin-1-ylethyl)benzamide;hydrochlo-ride], the IC90 came to 420 nM. Consider `Cc1cc(Nc2nccn3c(-c4ccc(OC(F)F)cc4)cnc23)ccc1C(=O)N(C)CCCCN` [Example 200, N-(4-aminobutyl)-4-[[3-[4-(difluoromethoxy)phenyl]im-idazo[1,2-a]pyrazin-8-yl]amino]-N,2-dimethylbenzamide;hydrochlo-ride], for which the IC90 was 440 nM.

Take `Cc1cc(Nc2nccn3c(-c4ccc(Cl)c(F)c4F)cnc23)ccc1C(=O)NCCCCN` [Example 202, N-(4-aminobutyl)-4-[[3-(4-chloro-2,3 difluorophenyl)imidazo[1,2-a]pyrazin-8-yl]amino]-2-methylbenzamide; hydrochlo-ride]: the IC90 stood at 460 nM.

Consider `CN(CCN1CCNCC1)C(=O)c1ccc(Nc2nccn3c(-c4ccc(OC(F)F)cc4)cnc23)cc1Cl` [Example 203, 2-chloro-4-[[3-[4-(difluoromethoxy)phenyl]im-idazo[1,2-a]pyrazin-8-yl]amino]-N-methyl-N-(2-piperazin-1-ylethyl)benzamide; hydrochlo-ride], for which the IC90 is 460 nM. As to `CC(=O)N1CCC(CCN(C)C(=O)c2ccc(Nc3nccn4c(-c5ccc(OC(F)F)cc5)cnc34)cc2C)CC1` [Example 204, N-[2-(1-acetylpiperidin-4-yl)ethyl]-4-[[3-[4-(difluoromethoxy)phenyl]im-idazo[1,2-a]pyrazin-8-yl]amino]-N,2-dimethylbenzamide], the IC90 was 530 nM.

The term IC90 denotes the concentration needed for an effect of 90%.

These data come from patent publication US20230012368A1 (Hoffmann-La Roche Inc., priority 2018, published 2023).
